Test results published in US20060205599A1, “Herbicide combinations comprising specific sulfonamides” (Bayer CropScience GmbH, priority 2003, published 2006).

Key:
[1] = system: Veronica hederifolia; assay: Herbicidal action (field trials), visual scoring of harmful plant; type: in vivo; settings: field trial, natural outdoor conditions; visual score about 4 weeks after application vs untreated control (100% = all plants died), mean of 2-4 plots; application rate g of active substance/hectare: A 5, B 30, C 250, A + B 5 + 30, A + B + C 5 + 30 + 250
Protocol: The seeds or rhizome pieces of the harmful plants and the useful plants were laid out or were present in the soil, and they were grown under natural outdoor conditions. Treatment with the active compounds or active compound combinations was carried out […] before and/or after the emergence of the plants, generally at the 2- to 4-leaf stage, in various dosages using a water application rate of 100 to 400 l/ha (converted).
After the application (about 4 weeks after the application), the effectiveness of the active compounds or active compound combinations was scored visually by comparing the treated plots to untreated control plants. During scoring, damage and development of all above-ground parts of plants was assessed. Scoring was carried out using a percentage scale (100% effect=all plants had died; 50% effect=50% of the plants and the green parts of the plants have died; 0% effect=no effect observed=like control plant). In each case, the mean score of 2-4 plots was calculated.
The results are shown in the table below; the effect of the individual application of active compounds (A+B) and C being stated in brackets.

[2] = system: Triticum aestivum; type: in vivo; settings: field trial, natural outdoor conditions; visual score about 4 weeks after application vs untreated control, mean of 2-4 plots; application rate g of active substance/hectare: A 5, B 30, C 250, A + B 5 + 30, A + B + C 5 + 30 + 250
Protocol: The seeds or rhizome pieces of the harmful plants and the useful plants were laid out or were present in the soil, and they were grown under natural outdoor conditions.
During scoring, damage and development of all above-ground parts of plants was assessed. […] In each case, the mean score of 2-4 plots was calculated.

Row | SMILES | Veronica hederifolia % effect [1] [%] | Triticum aestivum % damage [2] [%]
1 | COC(=O)c1ccc(CNS(C)(=O)=O)cc1S(=O)(=O)NC(=O)Nc1nc(OC)cc(OC)n1 [mesosulfuron-methyl, methyl 2-[3-(4,6-dimethoxypyrimidin-2-yl)ureidosulfonyl]-4-methanesulfonaminomethyl-benzoate] | 7 | 2
2 | Cc1cc(Cl)ccc1O[C@H](C)C(=O)O [mecoprop-P, (R)-2-(4-chloro-o-tolyloxy)propionic acid] | 35 | 0
3 | CCCOc1nn(C(=O)[N-]S(=O)(=O)c2ccccc2C(=O)OC)c(=O)n1C.[Na+] [propoxycarbazone-sodium] | 30 | 3
